Experimental data reported in ChEMBL document CHEMBL2034905, “Synthesis of benzimidazolyl-1,3,4-oxadiazol-2ylthio-N-phenyl (benzothiazolyl) acetamides as antibacterial, antifungal and antituberculosis agents” (Eur J Med Chem, 2012).
In brackets after ≈: the same amount, converted by molar mass.

What was measured:
Escherichia coli [1] = experiment: Antibacterial activity against Escherichia coli MTCC 739 at 100 ug/disc by paper disc diffusion technique; assay type: functional; settings: read-out: IZ
Staphylococcus aureus [2] = experiment: Antibacterial activity against Staphylococcus aureus MTCC 96 at 100 ug/disc by paper disc diffusion technique; assay type: functional; settings: read-out: IZ
Aspergillus fumigatus [3] = experiment: Antifungal activity against Aspergillus fumigatus MTCC 343 at 100 ug/disc by paper disc diffusion technique; assay type: functional; settings: read-out: IZ
Aspergillus niger [4] = experiment: Antifungal activity against Aspergillus niger MTCC 282 by agar streak dilution method; assay type: functional
Salmonella typhi [5] = experiment: Antibacterial activity against Salmonella typhi MTCC 733 at 100 ug/disc by paper disc diffusion technique; assay type: functional, Salmonella enterica subsp. enterica serovar Typhi; settings: Salmonella enterica, read-out: IZ
[6] = system: Mycobacterium tuberculosis; experiment: Antituberculosis activity against Mycobacterium tuberculosis H37Rv by BACTEC MGIT method; assay type: functional
[7] = Lipophilicity, log P of the compound; assay type: physicochemical; settings: octanol/water
Aspergillus niger [8] = experiment: Antifungal activity against Aspergillus niger MTCC 282 at 100 ug/disc by paper disc diffusion technique; assay type: functional; settings: read-out: IZ
Shigella flexneri [9] = experiment: Antibacterial activity against Shigella flexneri MTCC 1457 by agar streak dilution method; assay type: functional
Proteus vulgaris [10] = experiment: Antibacterial activity against Proteus vulgaris MTCC 1771 at 100 ug/disc by paper disc diffusion technique; assay type: functional; settings: read-out: IZ
Shigella flexneri [11] = experiment: Antibacterial activity against Shigella flexneri MTCC 1457 at 100 ug/disc by paper disc diffusion technique; assay type: functional; settings: read-out: IZ
Proteus vulgaris [12] = experiment: Antibacterial activity against Proteus vulgaris MTCC 1771 by agar streak dilution method; assay type: functional
Klebsiella pneumoniae [13] = experiment: Antibacterial activity against Klebsiella pneumoniae MTCC 109 by agar streak dilution method; assay type: functional
Aspergillus fumigatus [14] = experiment: Antifungal activity against Aspergillus fumigatus MTCC 343 by agar streak dilution method; assay type: functional
Aspergillus clavatus [15] = experiment: Antifungal activity against Aspergillus clavatus MTCC 1323 by agar streak dilution method; assay type: functional
Salmonella typhi [16] = experiment: Antibacterial activity against Salmonella typhi MTCC 733 by agar streak dilution method; assay type: functional, Salmonella enterica subsp. enterica serovar Typhi; settings: Salmonella enterica
Pseudomonas aeruginosa [17] = experiment: Antibacterial activity against Pseudomonas aeruginosa MTCC 741 by agar streak dilution method; assay type: functional
Klebsiella pneumoniae [18] = experiment: Antibacterial activity against Klebsiella pneumoniae MTCC 109 at 100 ug/disc by paper disc diffusion technique; assay type: functional; settings: read-out: IZ
Candida albicans [19] = experiment: Antifungal activity against Candida albicans MTCC 183 at 100 ug/disc by paper disc diffusion technique; assay type: functional; settings: read-out: IZ
Escherichia coli [20] = experiment: Antibacterial activity against Escherichia coli MTCC 739 by agar streak dilution method; assay type: functional
Bacillus cereus [21] = experiment: Antibacterial activity against Bacillus cereus MTCC 430 at 100 ug/disc by paper disc diffusion technique; assay type: functional; settings: read-out: IZ
Staphylococcus aureus [22] = experiment: Antibacterial activity against Staphylococcus aureus MTCC 96 by agar streak dilution method; assay type: functional
[23] = system: Mycobacterium tuberculosis; experiment: Antituberculosis activity against Mycobacterium tuberculosis H37Rv at 6.25 ug/ml by Lowenstein-Jensen method; assay type: functional
Bacillus cereus [24] = experiment: Antibacterial activity against Bacillus cereus MTCC 430 by agar streak dilution method; assay type: functional
Aspergillus clavatus [25] = experiment: Antifungal activity against Aspergillus clavatus MTCC 1323 at 100 ug/disc by paper disc diffusion technique; assay type: functional; settings: read-out: IZ
[26] = system: Mycobacterium tuberculosis; experiment: Antituberculosis activity against Mycobacterium tuberculosis H37Rv by Lowenstein-Jensen method; assay type: functional
Candida albicans [27] = experiment: Antifungal activity against Candida albicans MTCC 183 by agar streak dilution method; assay type: functional
[28] = system: Mycobacterium tuberculosis; experiment: Antituberculosis activity against Mycobacterium tuberculosis H37Rv at 6.25 ug/ml by BACTEC MGIT method; assay type: functional
Pseudomonas aeruginosa [29] = experiment: Antibacterial activity against Pseudomonas aeruginosa MTCC 741 at 100 ug/disc by paper disc diffusion technique; assay type: functional; settings: read-out: IZ

SMILES: COc1ccc(NC(=O)CSc2nnc(Cn3cnc4ccccc43)o2)cc1
- zone of inhibition at 100 µg/disc (Escherichia coli [1]): 20 mm
- zone of inhibition at 100 µg/disc (Staphylococcus aureus [2]): 13 mm
- zone of inhibition at 100 µg/disc (Aspergillus fumigatus [3]): 10 mm
- MIC (Aspergillus niger [4]): 100 µg/mL (≈ 253 µM)
- zone of inhibition at 100 µg/disc (Salmonella typhi [5]): 20 mm
- MIC [6]: 6.25 µg/mL (≈ 15.8 µM)
- logP [7]: 2.37
- zone of inhibition at 100 µg/disc (Aspergillus niger [8]): 16 mm
- MIC (Shigella flexneri [9]): 50 µg/mL (≈ 126 µM)
- zone of inhibition at 100 µg/disc (Proteus vulgaris [10]): 21 mm
- zone of inhibition at 100 µg/disc (Shigella flexneri [11]): 19 mm
- MIC (Proteus vulgaris [12]): 25 µg/mL (≈ 63.2 µM)
- MIC (Klebsiella pneumoniae [13]): 100 µg/mL (≈ 253 µM)
- MIC (Aspergillus fumigatus [14]): 100 µg/mL (≈ 253 µM)
- MIC (Aspergillus clavatus [15]): 100 µg/mL (≈ 253 µM)
- MIC (Salmonella typhi [16]): 50 µg/mL (≈ 126 µM)
- MIC (Pseudomonas aeruginosa [17]): 50 µg/mL (≈ 126 µM)
- zone of inhibition at 100 µg/disc (Klebsiella pneumoniae [18]): 11 mm
- zone of inhibition at 100 µg/disc (Candida albicans [19]): 22 mm
- MIC (Escherichia coli [20]): 50 µg/mL (≈ 126 µM)
- zone of inhibition at 100 µg/disc (Bacillus cereus [21]): 18 mm
- MIC (Staphylococcus aureus [22]): 100 µg/mL (≈ 253 µM)
- inhibition at 6.25 µg/mL [23]: 99%
- MIC (Bacillus cereus [24]): 50 µg/mL (≈ 126 µM)
- zone of inhibition at 100 µg/disc (Aspergillus clavatus [25]): < 10 mm
- MIC [26]: 6.25 µg/mL (≈ 15.8 µM)
- MIC (Candida albicans [27]): 50 µg/mL (≈ 126 µM)
- inhibition at 6.25 µg/mL [28]: 99%
- zone of inhibition at 100 µg/disc (Pseudomonas aeruginosa [29]): 21 mm

SMILES: CO[C@H]1/C=C/O[C@@]2(C)Oc3c(C)c(O)c4c(O)c(c(/C=N/N5CCN(C)CC5)c(O)c4c3C2=O)NC(=O)/C(C)=C\C=C\[C@H](C)[C@H](O)[C@@H](C)[C@@H](O)[C@@H](C)[C@H](OC(C)=O)[C@@H]1C [RIFAMPIN]
- MIC [6]: 0.25 µg/mL (≈ 0.304 µM)
- inhibition at 6.25 µg/mL [28]: 99%
